The text below walks through data of US7879876B2, “Sulfonamide derivatives and use thereof for the modulation of metalloproteinases” (Merck Serono SA, priority 2005, dated 2011).

The first assay has as its target MMP13 (Homo sapiens, UniProt P45452). Put plainly: MMP13 inhibition (Table 1). The format is biochemical. The following applies: @ 0.1 μM; read-out: percentage inhibition MMP13.
The inhibition is the change of the read-out against control, counted positive when it falls. Turning to `O=CN(O)C(CS(=O)(=O)N1CCc2ccccc2C1)C1CC1` (centres unmarked) [Example 4, N-[1-cyclopropyl-2-(3,4-dihydroisoquinolin-2(1H)-ylsulfonyl)ethyl]-N-hydroxyformamide], the inhibition at 0.1 µM came out at 0%. On the same count and under the same terms, the result for `O=CN(O)C(CCc1ccccc1)CS(=O)(=O)N1CCc2ccccc2C1` (centres unmarked) [Example 1, N-{1-[(3,4-dihydroisoquinolin-2(1H)-ylsulfonyl)methyl]-3-phenylpropyl}-N-hydroxyformamide] reads 15%; that for `CCCCCC(CS(=O)(=O)N1CCc2ccccc2C1)N(O)C=O` (centres unmarked) [Example 3, N-{1-[(3,4-dihydroisoquinolin-2(1H)-ylsulfonyl)methyl]hexyl}-N-hydroxyformamide], 6%; that for `COc1ccc(C(CS(=O)(=O)N2CCc3ccccc3C2)N(O)C=O)cn1` (centres unmarked) [Example 13, N-[2-(3,4-dihydroisoquinolin-2(1H)-ylsulfonyl)-1-(6-methoxypyridin-3-yl)ethyl]-N-hydroxyformamide], 28%.

Still in this assay, the particulars now being: @ 5 μM; read-out: percentage inhibition MMP13.
Turning to `O=CN(O)C(CS(=O)(=O)N1CCc2ccccc2C1)C1CC1` (centres unmarked) [Example 4, N-[1-cyclopropyl-2-(3,4-dihydroisoquinolin-2(1H)-ylsulfonyl)ethyl]-N-hydroxyformamide], the inhibition at 5 µM was found to be 80%. Regarding `O=CN(O)C(CCc1ccccc1)CS(=O)(=O)N1CCc2ccccc2C1` (centres unmarked) [Example 1, N-{1-[(3,4-dihydroisoquinolin-2(1H)-ylsulfonyl)methyl]-3-phenylpropyl}-N-hydroxyformamide], the inhibition at 5 µM amounted to 97%.

Consider `CCCCCC(CS(=O)(=O)N1CCc2ccccc2C1)N(O)C=O` (centres unmarked) [Example 3, N-{1-[(3,4-dihydroisoquinolin-2(1H)-ylsulfonyl)methyl]hexyl}-N-hydroxyformamide], for which the inhibition at 5 µM was found to be 98%. Still for that read-out and setting: the result for `COc1ccc(C(CS(=O)(=O)N2CCc3ccccc3C2)N(O)C=O)cn1` (centres unmarked) [Example 13, N-[2-(3,4-dihydroisoquinolin-2(1H)-ylsulfonyl)-1-(6-methoxypyridin-3-yl)ethyl]-N-hydroxyformamide] reads 96%; that for `COc1cc2c(cc1OC)CN(S(=O)(=O)CC(CCc1ccccc1)N(O)C=O)CC2` (centres unmarked) [Example 12, N-(1-{[(6,7-dimethoxy-3,4-dihydroisoquinolin-2(1H)-yl)sulfonyl]methyl}-3-phenylpropyl)-N-hydroxyformamide], 48%; that for `O=CN(O)C(CS(=O)(=O)N1CCc2ccccc2C1)c1cccnc1` (centres unmarked) [Example 10, N-[2-(3,4-dihydroisoquinolin-2(1H)-ylsulfonyl)-1-pyridin-3-ylethyl]-N-hydroxyformamide], 93%.

Another assay concerns IL-2-induced peritoneal recruitment of lymphocytes. Nature of the assay: IL-2-induced peritoneal recruitment of lymphocytes. The following applies: Mus musculus, Lymphocyte, po; 3 mg/kg p.o., 15 min prior to IL-2; mice; 24 h after IL-2. Format: in vivo, C3H/HEN mice. How it is done:
Administration of IL-2 intraperitoneally causes migration of lymphocytes into the intraperitoneal cavity. This is a model for the cellular migration that occurs during inflammation.
C3H/HEN mice (Elevage Janvier, France) were intraperitoneally injected with IL-2 (Serono Pharmaceutical Research Institute, 20 μg/kg, in saline). Compounds of the invention were suspended in 0.5% carboxymethylcellulose (CMC)/0.25% tween-20 and were administered by s.c. or p.o. route (10 ml/kg) 15 min prior to administration of IL-2.
Twenty-four hours after administration of IL-2, peritoneal white blood cells were collected by 3 successive lavages of the peritoneal cavity with 5 ml phosphate buffered saline (PBS)-1 mM EDTA (+4° C.). The suspension was centrifuged (1700 g×10 min at +4° C.). The resulting pellet was suspended in 1 ml PBS-1 mM EDTA.
Lymphocytes were identified and counted using a Beckman/Coulter counter.
The animals were divided into 6 groups (6 mice each group):
Group 1: (baseline) received 0.5% CMC/0.25% tween-20 (vehicle of compound of the invention) and saline (vehicle of IL-2);
Group 2: (control IL-2) received 0.5% CMC/0.25% tween-20 and injection of IL-2;
Group 3: Experimental group (Compound of the invention Dose 1) received a compound of the invention and injection of IL-2;
Group 4: Experimental group (Compound of the invention Dose 2) received a compound of the invention and injection of IL-2;
Group 5: Experimental group (Compound of the invention Dose 3) received a compound of the invention and injection of IL-2;
Group 6: Reference group received reference compound dexamethasone and injection of IL-2.
Inhibition of lymphocyte recruitment was calculated as follows:
Where Ly 1=Number of lymphocytes in group 1 (E3/μl), Ly 2=Number of lymphocytes in group 2 (E3/μl), Ly X=Number of lymphocytes in group X (3-5) (E3/μl).
By inhibition in vivo is commonly meant how much of the control response was suppressed. Regarding `CC(C)C(CS(=O)(=O)N1CCc2ccc(-c3ccc(F)cc3)cc2C1)N(O)C=O` (centres unmarked) [Example 50, N-[1-({[7-(4-fluorophenyl)-3,4-dihydroisoquinolin-2(1H)-yl]sulfonyl}methyl)-2-methylpropyl]-N-hydroxyformamide], the inhibition in vivo at 3 mg/kg turned out to be 32 ± 4%. In turn, `CC1(C)OC[C@H](C(CS(=O)(=O)N2CCc3ccc(C(F)(F)F)cc3C2)N(O)C=O)O1` (stereo partly drawn) [Example 28, N-(1-[(4S)-2,2-dimethyl-1,3-dioxolan-4-yl]-2-{[7-(trifluoro-methyl)-3,4-dihydroisoquinolin-2(1H)-yl]sulfonyl}ethyl)-N-hydroxyformamide] registered an inhibition in vivo at 3 mg/kg of 62 ± 5%.

`O=CN(O)C1(CS(=O)(=O)N2CCc3ccc(Cl)cc3C2)CCCC1` [Example 62, N-(1-{[(7-chloro-3,4-dihydroisoquinolin-2(1H)-yl)-sulfonyl]methyl}cyclopentyl)-N-hydroxyformamide] returned an inhibition in vivo at 3 mg/kg of 20 ± 9%.

As for `O=CN(O)C(CS(=O)(=O)N1CCc2cc(C(F)(F)F)ccc2C1)C1CCCC1` (centres unmarked) [Example 25, N-(1-cyclopentyl-2-{[6-(trifluoromethyl)-3,4-dihydro-isoquinolin-2(1H)-yl]sulfonyl}ethyl)-N-hydroxyformamide], the inhibition in vivo at 3 mg/kg is 37 ± 7%. Still for that read-out and setting: to `O=CN(O)[C@H](CS(=O)(=O)N1Cc2ccc(F)cc2C1)[C@H]1CCCO1` [Example 29, N-{(1S)-2-[(5-fluoro-1,3-dihydro-2H-isoindol-2-yl)-sulfonyl]-1-[(2R)-tetrahydrofuran-2-yl]ethyl}-N-hydroxyformamide] belongs 29 ± 11%. Same read-out and setting: the result for `CC(C)(Cc1ccccc1)C(CS(=O)(=O)N1CCc2cc(C(F)(F)F)ccc2C1)N(O)C=O` (centres unmarked) [Example 31, N-[2,2-dimethyl-3-phenyl-1-({[6-(trifluoromethyl)-3,4-dihydroisoquinolin-2(1H)-yl]sulfonyl}methyl)propyl]-N-hydroxyformamide] reads 31 ± 10%. The same measure, in the same setting: to `O=CN(O)C(CO)CS(=O)(=O)N1CCc2cc(Cl)c(Cl)cc2C1` (centres unmarked) [Example 49, N-[2-[(6,7-dichloro-3,4-dihydroisoquinolin-2(1H)-yl)-sulfonyl]-1-(hydroxymethyl)ethyl]-N-hydroxyformamide] belongs 16 ± 12%; to `O=CN(O)C(CS(=O)(=O)N1CCc2ccc(-c3ccc(F)cc3)cc2C1)C1CC1` (centres unmarked) [Example 75, N-(1-cyclopropyl-2-{[7-(4-fluorophenyl)-3,4-dihydro-isoquinolin-2(1H)-yl]sulfonyl}ethyl)-N-hydroxyformamide], 26 ± 11%; to `CC(C)c1ccc2c(c1)CCN(S(=O)(=O)CC([C@H]1COC(C)(C)O1)N(O)C=O)C2` (stereo partly drawn) [Example 18, N-{1-[(4S)-2,2-dimethyl-1,3-dioxolan-4-yl]-2-[(6-isopropyl-3,4-dihydroisoquinolin-2(1H)-yl)sulfonyl]ethyl}-N-hydroxyformamide], 39 ± 7%. In the case of `O=CN(O)[C@H](CS(=O)(=O)N1CCc2ccc(C(F)(F)F)cc2C1)[C@H]1CCCO1` [Example 27, N-hydroxy-N-((1S)-1-[(2R)-tetrahydrofuran-2-yl]-2-{[7-(trifluoromethyl)-3,4-dihydroisoquinolin-2(1H)-yl]sulfonyl}ethyl)formamide], the inhibition in vivo at 3 mg/kg worked out at 46 ± 9%. `O=CN(O)C(COCc1ccccc1)CS(=O)(=O)N1CCc2ccc(C(F)(F)F)cc2C1` (centres unmarked) [Example 59, N-[2-(benzyloxy)-1-({[7-(trifluoromethyl)-3,4-dihydro-isoquinolin-2(1H)-yl]sulfonyl}methyl)ethyl]-N-hydroxyformamide] yielded an inhibition in vivo at 3 mg/kg of 55 ± 9%.

In the case of `O=CN(O)C(CS(=O)(=O)N1CCc2ccc(-c3ccsc3)cc2C1)C1CCCC1` (centres unmarked) [Example 68, N-(1-cyclopentyl-2-{[7-(3-thienyl)-3,4-dihydroisoquinolin-2(1H)-yl]sulfonyl}ethyl)-N-hydroxyformamide], testing at 3 mg/kg gave an inhibition in vivo of 33 ± 7%. The same measure, in the same setting: to `CC(C)(C)CC(CS(=O)(=O)N1CCc2cc(Cl)c(Cl)cc2C1)N(O)C=O` (centres unmarked) [Example 42, N-(1-{[(6,7-dichloro-3,4-dihydroisoquinolin-2(1H)-yl)-sulfonyl]methyl}-3,3-dimethylbutyl)-N-hydroxyformamide] belongs 40 ± 10%. Still for that read-out and setting: the result for `O=CN(O)C(CS(=O)(=O)N1CCc2ccc(Cl)cc2C1)C1CCCC1` (centres unmarked) [Example 21, N-{2-[(7-chloro-3,4-dihydroisoquinolin-2(1H)-yl)sulfonyl]-1-cyclopentylethyl}-N-hydroxyformamide] reads 43 ± 9%; that for `O=CN(O)C(CS(=O)(=O)N1Cc2ccccc2C1)C1CC1` (centres unmarked) [Example 72, N-[1-cyclopropyl-2-(1,3-dihydro-2H-isoindol-2-ylsulfonyl)-ethyl]-N-hydroxyformamide], 41 ± 7%. Still for that read-out and setting: to `O=CN(O)C(CS(=O)(=O)N1CCc2ccc(-c3ccncc3)cc2C1)C1CCCC1` (centres unmarked) [Example 79, N-{1-cyclopentyl-2-[(7-pyridin-4-yl-3,4-dihydroisoquinolin-2(1H)-yl)sulfonyl]ethyl}-N-hydroxyformamide] belongs 43 ± 10%; to `CCC(CC)C(CS(=O)(=O)N1CCc2cc(C(C)C)ccc2C1)N(O)C=O` (centres unmarked) [Example 35, N-(2-ethyl-1-{[(6-isopropyl-3,4-dihydroisoquinolin-2(1H)-yl)sulfonyl]methyl}butyl)-N-hydroxyformamide], 50 ± 8%; to `CC1(C)OC[C@H](C(CS(=O)(=O)N2CCc3ccc(Cl)cc3C2)N(O)C=O)O1` (stereo partly drawn) [Example 19, N-{2-[(7-chloro-3,4-dihydroisoquinolin-2(1H)-yl)sulfonyl]-1-[(4S)-2,2-dimethyl-1,3-dioxolan-4-yl]ethyl}-N-hydroxyformamide], 62 ± 9%. `O=CN(O)C(CCC(F)(F)F)CS(=O)(=O)N1CCc2ccc(Cl)cc2C1` (centres unmarked) [Example 76, N-(1-{[(7-chloro-3,4-dihydroisoquinolin-2(1H)-yl)-sulfonyl]methyl}-4,4,4-trifluorobutyl)-N-hydroxyformamide] came in with an inhibition in vivo at 3 mg/kg of 45 ± 11%.

Compound `CC(C)(CS(=O)(=O)N1CCc2ccc(Br)cc2C1)N(O)C=O` [Example 56, N-{2-[(7-bromo-3,4-dihydroisoquinolin-2(1H)-yl)sulfonyl]-1,1-dimethylethyl}-N-hydroxyformamide] came in with an inhibition in vivo at 3 mg/kg of 37 ± 8%. `O=CN(O)C(COc1ccccc1)CS(=O)(=O)N1CCc2ccc(Cl)cc2C1` (centres unmarked) [Example 61, N-[2-[(7-chloro-3,4-dihydroisoquinolin-2(1H)-yl)sulfonyl]-1-(phenoxymethyl)ethyl]-N-hydroxyformamide] gave an inhibition in vivo at 3 mg/kg of 45 ± 9%. `CC1(C)OC[C@H](C(CS(=O)(=O)N2Cc3ccccc3C2)N(O)C=O)O1` (stereo partly drawn) [Example 16, N-{2-(1,3-dihydro-2H-isoindol-2-ylsulfonyl)-1-[(4S)-2,2-dimethyl-1,3-dioxolan-4-yl]ethyl}-N-hydroxyformamide]: testing at 3 mg/kg gave an inhibition in vivo of 44 ± 7%.
